pIC50: −log10 of the molar value.
Legend:
human PARG = molecular target: T1, human PARG (Homo sapiens, UniProt Q86W56); experiment: PARG enzymatic assay; format: biochemical; conditions: recombinant GST-fused human PARG (aa 378-976); 3H-labeled poly-(ADP-ribose) substrate; 23° C., 10 min
T1 construct: human PARG from amino acid 378 to 976; GST (glutathione-S-transferase, pGEX-4T1) (N); made in house; host or cells: E. coli BL21
Procedure: The potency of PARG inhibition was determined in a PARG enzymatic assay. For each compound, various doses were used to inhibit the PARG reaction. A dose responsible curve was generated to determine the IC50 value and the concentration (in μM) required to achieve 50% inhibition of the reaction.
The PARG assay consisted of (a) preparation of 3H-labeled radioactive PARG as substrate, (b) purification of recombinant PARG, (c) incubation of the compound with the PARG reaction, (d) separation of the product by absorption to glass fiber filter and quantifying the radioactivity of ADP-ribose by scintillation counting.
3H-labeled poly-(ADP-ribose) was made by mixing labeled and unlabeled PAR. Labeled PAR was synthesized in a reaction of 50 mM Tris-HCl (pH 8.0), 4 mM MgCl2, 0.8 μg/mL activated DNA, 3 μM NAD, NEN 3H-NAD (0.1 mCi/mL), 0.8 μl/mL and 1.4 μl/mL Trevigen PARP. The reaction was incubated at room temperature for 60 min, then dialyzed to remove unincorporated 3H NAD using a MWCO 7000 dialysis cassette in 50 mM Phosphate buffer (pH 7.1) at 5° C. over night. Buffer was changed and dialysis continued for 2 h in the morning. The resulting 3H PAR gave 80,000 DPM/10 μL by scintillation counting.
Unlabeled PAR was synthesized in a reaction that consisted of 50 mM Tris-HCl (pH 8.0), 4 mM MgCl2, 0.8 μg/mL activated DNA, 150 μM NAD, and 1.9 μl/mL Trevigen PARP. The reaction was incubated at room temperature for 60 min, and dialyzed to remove unincorporated NAD in a MWCO 7000 cassette using 50 mM Phosphate buffer (pH 7.1) over night at […]. Buffer was changed and dialysis continued for 2 h in the morning. The OD260 of synthesized PAR is […].
The final PAR mix is made by combining 3H-PAR and PAR synthesized @ 150 μM NAD so that the OD260=0.2-0.3 and the DPM/10 μL=10,000 DPM (SA=0.45 Ci/mmole). EDTA was added to 1 mM.
A cDNA fragment encoding the carboxy terminal part of human PARG from amino acid 378 to 976 was amplified by polymerase chain reaction with human thymus cDNA (Clontech, Palo Alto, Calif.) as a template and a pair of primers with the sequences of 5′-[…]-3′ and 5′-[…]-3′. The primers contained the restriction enzyme sites EcoRI and XhoI. The PCR amplified PARG DNA fragment was digested with EcoRI and XhoI, and then ligated to the same sites in pGEX-4T1 plasmid (acquired from Pharmacia/Upjohn Co., Kalamazoo, Mich.) to create pGEX-PARG by using standard molecular biology procedure. The pGEX-PARG was transformed into E. coli strain BL21 for expressing the recombinant protein that has a glutathione-S-transferase at the amino terminus and fused in frame with PARG at the carboxy terminus. The recombinant protein was expressed and purified using glutathione-sephadex 4B beads according to the standard methodology.
A range of potential PARG inhibitors at final concentrations of 200.0 to 0.1 μM were tested, each point done in triplicate. The compounds were dissolved in DMSO resulting in a final DMSO concentration of 5.0%. The reaction was carried out in a volume of 0.1 mL. PARG enzyme was added to a concentration of 0.05 μL/mL to microtiter plates containing approximately 10 μM 3H-labeled poly-(ADP-ribose) in 50 mM Phosphate buffer (pH 7.1), 5 mM B-mercaptoethanol. The reaction was incubated at 23° C. for 10 min. and was stopped with the addition of TCA to a final concentration of 10%.
Enzyme activity was measured by the disappearance of substrate, [poly-(ADP-ribose) polymer], which was quantified as the loss of glass fiber filter adsorbed radioactivity. The reaction was harvested onto Millipore GFC96 well filter plates using the Packard Cell Harvestor. The plates were washed three times with 70% ethanol, air dried, and the radioactivity was measured by scintillation counting.

T1 sequence (Q86W56 378-976): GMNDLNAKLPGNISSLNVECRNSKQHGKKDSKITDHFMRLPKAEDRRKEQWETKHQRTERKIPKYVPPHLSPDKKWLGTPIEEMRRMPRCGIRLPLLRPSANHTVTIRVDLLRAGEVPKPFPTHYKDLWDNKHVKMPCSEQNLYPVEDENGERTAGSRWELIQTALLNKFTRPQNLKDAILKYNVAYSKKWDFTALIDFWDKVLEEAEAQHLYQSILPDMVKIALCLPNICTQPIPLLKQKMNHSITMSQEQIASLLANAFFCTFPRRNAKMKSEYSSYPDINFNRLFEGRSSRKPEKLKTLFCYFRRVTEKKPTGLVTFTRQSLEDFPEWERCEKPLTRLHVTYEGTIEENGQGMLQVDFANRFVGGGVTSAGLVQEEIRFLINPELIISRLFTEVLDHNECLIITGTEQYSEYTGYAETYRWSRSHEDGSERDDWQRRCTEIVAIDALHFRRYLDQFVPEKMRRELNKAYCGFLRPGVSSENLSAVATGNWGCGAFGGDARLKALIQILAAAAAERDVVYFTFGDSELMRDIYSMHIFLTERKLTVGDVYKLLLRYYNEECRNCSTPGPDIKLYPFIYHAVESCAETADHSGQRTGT

Compound	pIC50 (human PARG)	melting point [°C]
O=C(CCN1CCN(c2cccc(Cl)c2)CC1)c1ccc2c(c1)Cc1cc(C(=O)CCN3CCN(c4cccc(Cl)c4)CC3)ccc1O2 [Example 60]	5.96	182 to 185
O=C(NCCCc1ccccc1)c1ccc2c(c1)C(=O)c1cc(C(=O)NCCCc3ccccc3)ccc1-2 [Example 16]	5.77	162 to 165
O=C(c1cccc(C(=O)N2CCN(c3ccccc3)CC2)c1)c1cccc(C(=O)N2CCN(c3ccccc3)CC2)c1 [Example 22]	4.77	157 to 158
O=C(OCCCc1ccccc1)c1ccc2c(c1)C(Cl)(Cl)c1cc(C(=O)OCCCc3ccccc3)ccc1-2 [Example 2, 9,9-Dichloro-9H-fluorene-2,7-dicarboxylic acid bis-(3-phenyl-propyl) ester]	4.95	91 to 92
O=C(CCN1CCN(c2ccccc2)CC1)c1ccc2oc3ccc(C(=O)CCN4CCN(c5ccccc5)CC4)cc3c(=O)c2c1 [Example 42, 2,7-Bis-[3-(4-phenyl-piperazin-1-yl)-propionyl]-xanthen-9-one]	4.00	199 to 201
O=C(CCN1CCN(c2cccc(C(F)(F)F)c2)CC1)c1ccc2oc3ccc(C(=O)CCN4CCN(c5cccc(C(F)(F)F)c5)CC4)cc3c(=O)c2c1 [Example 41, 2,7-Bis-{3-[4-(3-trifluoromethyl-phenyl)-piperazin-1-yl]-propionyl}-xanthen-9-one]	4.76	166 to 167
O=C(NCCCc1ccccc1)c1ccc2c(c1)C(Cl)(Cl)c1cc(C(=O)NCCCc3ccccc3)ccc1-2 [Example 13, 2,7-Bis-[N-(3-phenyl-propyl)-carbamoyl]-9,9-dichloro-9H-fluorene]	5.37	165 to 167
O=C(CCN1CCN(c2ccc(F)cc2)CC1)c1ccc2c(c1)Cc1cc(C(=O)CCN3CCN(c4ccc(F)cc4)CC3)ccc1O2 [Example 59]	5.54	207 to 209
3,9-Bis{N-[(2,3-dimethoxy-phenyl)]-methyl}fluoranthenedicarboxamide [Example 34]	4.51	
O=C(NCc1ccccc1)c1ccc2c(c1)C(=O)c1cc(C(=O)NCc3ccccc3)ccc1-2 [Example 17, 2,7-Bis(N-benzylcarbamoyl)-9-Oxo-9H-fluorene]	4.66	
O=C(NCCc1ccccc1)c1ccc2c(c1)C(Cl)(Cl)c1cc(C(=O)NCCc3ccccc3)ccc1-2 [Example 15, 2,7-Bis-[N-(phenethyl)-carbamoyl]-9,9-dichloro-9H-fluorene]	4.60	
O=C(OCCc1ccc2ccccc2c1)c1ccc2c(c1)C(Cl)(Cl)c1cc(C(=O)OCCc3ccc4ccccc4c3)ccc1-2 [Example 9, 9,9-Dichloro-9H-fluorene-2,7-dicarboxylic acid bis-(2-naphthalen-2-yl-ethyl) ester]	4.33	
O=C(NCCc1cccs1)c1cccc2c1S(=O)(=O)c1c(cccc1C(=O)NCCc1cccs1)O2 [Example 50, 1,9-Bis{N-[2-(thiophen-2-yl)ethyl]carbamoyl}-10,10-dioxo-phenoxathiin]	4.94	
O=C(NCc1ccccc1)c1ccc2c(c1)-c1ccc(C(=O)NCc3ccccc3)c3cccc-2c13 [Example 23, 3,9-Bis(N-phenylmethyl)fluoranthenedicarboxamide]	4.45	
O=C(NCc1ccc(Cl)c(Cl)c1)c1ccc2c(c1)C(=O)c1cc(C(=O)NCc3ccc(Cl)c(Cl)c3)ccc1-2 [Example 57, 9-Oxo-9H-fluorene-2,7-bis-(3,4-dichloro-benzylamide)]	4.82	265 to 267
O=C(NCCc1ccccc1)c1ccc(C(=O)c2ccc(C(=O)NCCc3ccccc3)cc2)cc1 [Example 18, 4,4′-Bis(N-phenethyl)carbamoyl-benzophenone]	5.22	244 to 248
O=C(CCCn1cccc1)c1ccc2c(c1)-c1ccc(C(=O)CCCn3cccc3)c3cccc-2c13 [Example 54, 3,9-Bis[4-(1-pyrrolo)butyryl]fluoranthene]	5.27	
O=C(NCCc1ccc(Cl)cc1Cl)c1cccc2c1S(=O)(=O)c1c(cccc1C(=O)NCCc1ccc(Cl)cc1Cl)O2 [Example 48, 1,9-Bis{N-[2-(2,4-dichlorophenyl)ethyl]carbamoyl}-10,10-dioxo-phenoxathiin]	4.41	
COc1ccc(CNC(=O)c2ccc3c(c2)-c2ccc(C(=O)NCc4ccc(OC)c(OC)c4)c4cccc-3c24)cc1OC [Example 28, 3,9-Bis[N-(3,4-dimethoxy-benzyl)]fluoranthenedicarboxamide]	4.95	

Further compounds by rising pIC50 (human PARG), results first:

pIC50 (human PARG)	melting point [°C]	Compound
4.32		O=C(NCc1cccc2ccccc12)c1ccc2c(c1)C(Cl)(Cl)c1cc(C(=O)NCc3cccc4ccccc34)ccc1-2 [Example 14, 2,7 Bis-[N-(naphthalen-1-ylmethyl)-carbamoyl]-9,9-dichloro-9H-fluorene]
4.42		O=C(c1cccc2c1S(=O)(=O)c1c(cccc1C(=O)N1CCN(c3ccc(O)cc3)CC1)O2)N1CCN(c2ccc(O)cc2)CC1 [Example 45, 1,9-Bis{N-[4-(4-hydroxy-phenyl)-piperazine]carbamoyl}-10,10-dioxo-phenoxathiin]
4.54		O=C(NCCOc1ccccc1)c1ccc2c(c1)-c1ccc(C(=O)NCCOc3ccccc3)c3cccc-2c13 [Example 29, 3,9-Bis[N-(2-phenoxy)ethyl]fluoranthenedicarboxamide]
4.66	327 to 329	O=C(NCCc1ccccc1)c1ccc2c(c1)C(=O)c1cc(C(=O)NCCc3ccccc3)ccc1-2 [Example 56, 9-Oxo-9H-fluorene-2,7-bis-(phenethyl-amide)]
4.77	179 to 181	O=C(CCCl)c1ccc2c(c1)Cc1cc(C(=O)CCCl)ccc1O2 [Example 37, 2,7-Bis-(3-chloro-propionyl)-xanthene]
4.87	159 to 162	O=C(OCc1ccccc1)c1ccc2c(c1)C(Cl)(Cl)c1cc(C(=O)OCc3ccccc3)ccc1-2 [Example 1, 9,9-Dichloro-9H-fluorene-2,7-dicarboxylic acid bis-benzyl ester]
4.97	155 to 157	O=C(CCN1CCN(c2cccc(C(F)(F)F)c2)CC1)c1ccc2c(c1)Cc1cc(C(=O)CCN3CCN(c4cccc(C(F)(F)F)c4)CC3)ccc1O2 [Example 40, 2,7-Bis-{3-[4-(3-trifluoromethyl-phenyl)-piperazin-1-yl]-propionyl}-xanthene]
5.00	160 to 163	O=C(NCc1ccc(O)c(O)c1)c1ccc2c(c1)C(=O)c1cc(C(=O)NCc3ccc(O)c(O)c3)ccc1-2 [Example 58, 9-Oxo-9H-fluorene-2,7-bis-(3,4-dihydroxy-benzylamide)]
5.15	206 to 208	O=C(CCN1CCN(c2ccccc2)CC1)c1ccc2c(c1)Cc1cc(C(=O)CCN3CCN(c4ccccc4)CC3)ccc1O2 [Example 39, 2,7-Bis-[3-(4-phenyl-piperazin-1-yl)propionyl]-xanthene]

From patent US6635786B2, “Symmetrically disubstituted aromatic compounds and pharmaceutical compositions for inhibiting poly (ADP-ribose) glycohydrolase, and methods for their use” (Guilford Pharmaceuticals, Inc., priority 2001, dated 2003)
